Measured values taken from patent US20230190743A1, “TREATMENT WITH ILEAL BILE ACID TRANSPORTER (IBAT) INHIBITORS FOR INCREASED EVENT-FREE SURVIVAL (EFS)” (Mirum Pharmaceuticals, Inc., priority 2021, published 2023).

Tests used:
Type in all cases: in vivo, human
[1] = tested on: patients with Alagille syndrome (ALGS); experiment: 6-year event-free survival analysis, maralixibat cohort versus GALA control group
Text: Real-world evidence (RWE) analytics continue to advance natural history comparisons in rare diseases. GALA is the largest global clinical research database for […] syndrome (ALGS). Maralixibat (MRX) is an ileal bile acid transporter inhibitor being studied in ALGS. A pre-specified analysis plan applied novel analytical techniques to compare RWE to a MRX cohort with the aim to compare event-free survival (EFS) in patients with ALGS. GALA contains retrospective data for clinical parameters, biochemistries and outcomes. The MRX database comprises of 84 ALGS patients with up to 6 years of data. EFS was defined as the time to first event of hepatic decompensation (variceal bleeding, ascites requiring therapy), surgical biliary diversion, liver transplantation (LT), or death. GALA was filtered to align key MRX eligibility criteria. The index time was determined via maximum likelihood estimation. Balance among baseline (BL) variables was assessed. Selection of patients and index time was blinded to clinical outcomes. Sensitivity and subgroup analyses, and adjustments for covariates were applied. Missing outcomes data were censored at last contact.

[2] = tested on: patients with ALGS; experiment: Predictors of 6-year EFS and TFS in maralixibat-treated patients from three long-term clinical trials
Protocol: MRX-treated ALGS patients from 3 long-term clinical trials were followed for development of clinically significant events (LTx, surgical biliary diversion [SBD], hepatic decompensation [ascites requiring therapy and variceal bleeding], and death) for up to 6 yrs. TFS (LTx and death only) was also assessed. Those who were on MRX 48 weeks from the first dose and had lab results at 48 weeks were included in this analysis. Variables considered in the model included: liver biochemistries, platelets, pruritus (as assessed by ItchRO(Obs) 0¬4 scale), total serum bile acids (sBA), and age. Goodness of fit was assessed using Harrell's concordance statistic (C-statistic). Cutoffs were determined via a grid search. P-values are from a log-rank test.
Patients (N=76) with ALGS aged 14-207 months with moderate-to-severe pruritus were included in this analysis. Maralixibat-treated patients with ALGS from three long-term clinical trials (ClinicalTrials.gov ID: NCT02047318; ClinicalTrials.gov ID: NCT02160782; ClinicalTrials.gov ID: NCT02117713) were followed for development of first clinically significant event (LT, surgical biliary diversion, hepatic decompensation [ascites requiring therapy and variceal bleeding], or death) for up to six years. TFS (LT and death only) was also assessed. Patients who were on maralixibat 48 weeks from the first dose and had lab results at 48 weeks were included in this analysis.
Variables considered in the model included: liver biochemistries, platelets, pruritus (as assessed by Itch-Reported Outcome [Observer] [ItchRO(Obs)] 0-4 scale), total sBA, and age at initiation. These were explored at baseline, week 48, and change from baseline to week 48. Goodness of fit was assessed using Harrell's concordance statistic (C-statistic). Variables with a value ≥0.7 (indicating a good model) were selected for further analysis. Cutoffs for each variable were determined via a grid search across the range of values. Statistical comparisons between the cutoff groups were calculated using a log-rank test.

[3] = tested on: patients with BSEP deficiency (PFIC2); experiment: INDIGO Phase 2 trial, HRQoL analysis by sBA treatment response at week 48; set-up: key to HRQoL score at week 48, PedsQL Generic Core Scale / HRQoL score at week 48, Multidimensional Fatigue Scale / HRQoL score at week 48, Family Impact Scale: HRQoL scale scores in points; MCID = 5 points; key to Beta, sBA treatment response at week 48 Yes vs No, Multidimensional Fatigue Scale / Beta, sBA treatment response at week 48 Yes vs No, Family Impact Scale: change from baseline in HRQoL score, in points (MCID 5 points); conditions: for 5-point change, Family Impact Scale / 5-point change, Multidimensional Fatigue Scale / 5-point change, PedsQL Generic Core Scale / 10-point change, Family Impact Scale / 10-point change, Multidimensional Fatigue Scale / 10-point change, PedsQL Generic Core Scale: baseline to week 48; for HRQoL score at week 48, Family Impact Scale / HRQoL score at week 48, Multidimensional Fatigue Scale / HRQoL score at week 48, PedsQL Generic Core Scale / HRQoL score change from baseline to week 48, Family Impact Scale: mean ± SD
Protocol: This retrospective analysis included data from patients with BSEP deficiency from the INDIGO Phase 2 open-label trial of MRX in children with PFIC. Pruritus was measured using a validated caregiver-reported Itch Reported Outcome (ItchRO) severity assessment tool (0=none to 4=very severe). Serum bile acid (sBA) response with MRX was defined as a >75% decrease from baseline or reduction to <102 μmol/L from baseline to week 48. HRQoL was assessed using the Pediatric Quality of Life Inventory Generic Core (PedsQL), Family Impact (FI), and Multidimensional Fatigue (MF) scale scores, and were collected via caregiver. The minimal clinically important difference (MCID) for the HRQoL assessments is 5 points. A subset of individual items from the HRQoL scales were also selected for assessment with treatment response. HRQoL was assessed at baseline and week 48 and scores were stratified by treatment response. P-values were calculated using t-test or ANOVA. Multivariate linear regression models were used to assess the relationship between mean change from baseline in HRQoL score and indicators for treatment response, adjusting for baseline HRQoL.

[4] = Week 48 sBA <200 μmol/L, n = 56
[5] = Week 48 sBA ≥200 μmol/L, n = 18
[6] = Week 48 total bilirubin <6.5 mg/dL, n = 52
[7] = Week 48 total bilirubin ≥6.5 mg/dL, n = 24
[8] = age at initiation of maralixibat <36 months, n = 21
[9] = age at initiation of maralixibat ≥36 months, n = 55
[10] = change from baseline to week 48 ItchRO(Obs) >1 pt reduction, n = 46
[11] = change from baseline to week 48 ItchRO(Obs) ≤1 pt reduction, n = 30
[12] = over the 48 weeks, controlling for baseline score

## CCCCC1(CCCC)CS(=O)(=O)c2ccc(N(C)C)cc2[C@@H](c2ccc(OCc3ccc(C[N+]45CCN(CC4)CC5)cc3)cc2)[C@H]1O [maralixibat]
[1]; MRX cohort, patients with ALGS (GALA control 50%)
  crude 6-year EFS: 73%
[1]; adjusted for age, sex, TB, ALT, 95% CI:0.189-0.491, p<0.0001
  EFS hazard ratio (HR), MRX cohort vs GALA control: 0.305
[2]; 76 patients
  clinical event: LT: 10 n
  clinical event: death: 2 n
  clinical event: decompensation: 3 n
  clinical event: surgical biliary diversion: 1 n
[2]; 76 patients, up to six years
  patients who experienced clinical events: Sixteen
[2]; [4]
  6-year EFS: 6-year EFS: 85%
  6-year TFS: 6-year TFS: 90%
[2]; [5]
  6-year EFS: 6-year EFS: 49%
  6-year TFS: 6-year TFS: 49%
[2]; [6]
  6-year EFS: 6-year EFS: 90%
  6-year TFS: 6-year TFS: 94%
[2]; [7]
  6-year EFS: 6-year EFS: 43%
  6-year TFS: 6-year TFS: 42%
[2]; [8]
  6-year EFS: 6-year EFS: 57%
  6-year TFS: 6-year TFS: 57%
[2]; [9]
  6-year EFS: 6-year EFS: 83%
  6-year TFS: 6-year TFS: 87%
[2]; [10]
  6-year EFS: 6-year EFS: 88%
  6-year TFS: 6-year TFS: 93%
[2]; [11]
  6-year EFS: 6-year EFS: 57%
  6-year TFS: 6-year TFS: 57%
[2]; number of worse EFS predictor variables: 0
  6-year EFS (%): 89%
[2]; number of worse EFS predictor variables: 1
  6-year EFS (%): 89%
[2]; number of worse EFS predictor variables: 2
  6-year EFS (%): 86%
[2]; number of worse EFS predictor variables: 3
  6-year EFS (%): 29%
[2]; number of worse EFS predictor variables: 4
  6-year EFS (%): 33%
[2]; patients with ≤2 predictors of worse EFS after 48 weeks of treatment
  rate of 6-year EFS: 88%
[2]; patients with ≥3 predictors of worse EFS after 48 weeks of treatment
  rate of 6-year EFS: 31%
[3]; at 48 weeks
  patients who achieved sBA treatment response: 6 patients
  patients who achieved sBA treatment response (>75% decrease from baseline or <102 μmol/L): 28.6%
[3]; multivariate regression, N = 16, CI 3.5, 41.1
  Beta, sBA treatment response at week 48 Yes vs No, Multidimensional Fatigue Scale: 22.3
[3]; multivariate regression, N = 20, CI −7.7, 19.4
  Beta, sBA treatment response at week 48 Yes vs No, Family Impact Scale: 5.8
[3]; [12]
  average increase of Multidimensional Fatigue scale score, sBA responders versus non-responders: 22 points
  mean increase of PedsQL score, sBA responders versus non-responders: 17 points
[3]; sBA Non-responders
  5-point change, Family Impact Scale: 1 (7.1) n (%)
  5-point change, Multidimensional Fatigue Scale: 3 (25.0) n (%)
  5-point change, PedsQL Generic Core Scale: 2 (15.4) n (%)
  10-point change, Family Impact Scale: 1 (7.1) n (%)
  10-point change, Multidimensional Fatigue Scale: 2 (16.7) n (%)
  10-point change, PedsQL Generic Core Scale: 2 (15.4) n (%)
  HRQoL score at week 48, Family Impact Scale: 62.7 ± 16.0
  HRQoL score at week 48, Multidimensional Fatigue Scale: 69.2 ± 18.5
  HRQoL score at week 48, PedsQL Generic Core Scale: 65.9 ± 13.8
  HRQoL score change from baseline to week 48, Family Impact Scale: −2.5 ± 9.8
[3]; sBA Responders
  5-point change, Family Impact Scale: 4 (66.7) n (%)
  5-point change, Multidimensional Fatigue Scale: 4 (100) n (%)
  5-point change, PedsQL Generic Core Scale: 4 (80.0) n (%)
  10-point change, Family Impact Scale: 4 (66.7) n (%)
  10-point change, Multidimensional Fatigue Scale: 4 (100) n (%)
  10-point change, PedsQL Generic Core Scale: 3 (60.0) n (%)
  HRQoL score at week 48, Family Impact Scale: 60.0 ± 15.5
  HRQoL score at week 48, Multidimensional Fatigue Scale: 76.0 ± 13.4
  HRQoL score at week 48, PedsQL Generic Core Scale: 79.3 ± 9.5
  HRQoL score change from baseline to week 48, Family Impact Scale: 8.0 ± 20.7
[3]; sBA non-responders
  patients with a change of ≥5 points in PedsQL Generic Core Total Scale Score: 15.4%
  patients with a ≥10-point change in PedsQL Multidimensional Fatigue Total Scale Score: 16.7%
[3]; sBA responders
  change in Family Impact Score from baseline to week 48: > 1.5 times the MCID
  patients with a change of ≥5 points in PedsQL Generic Core Total Scale Score: 80.0%
  patients with a ≥10-point change in PedsQL Multidimensional Fatigue Total Scale Score: 100%
